Experimental data published in PubChem BioAssay AID179 (DTP/NCI, 2004).
The source made the active and inactive calls.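 The calls were made as follows: active = compounds giving half or more protection of infected cells from virus-caused growth loss, again on retest; inactive = the rest.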

Test system: CEM cells HIV-1 protection, formazan growth assay
Assay: NCI AIDS Antiviral Assay
Details: for IC50: measured here: growth of uninfected CEM cells
Summary of the method: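 Protection of CEM cells against HIV-1 was scored from cell growth (soluble formazan) across five concentrations, with parallel uninfected cells. Lack of protection may reflect toxicity.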

SMILES | EC50 [µM] | IC50 [µM] | outcome
COc1ccccc1C1OCC(C)(C)N1C (stereo not given) | > 200 | 14.5 | 
O=C(CC(=O)C1CCOC1=O)C(=O)Nc1ccc(Cl)cc1Cl (stereo not given) |  |  | inactive
Fc1ccc(N=C/C=C/Nc2ccc(F)cc2)cc1 |  |  | inactive
CCOC(=O)NP(=O)(Nc1ccc(C)cc1)Nc1ccc(C)cc1 | > 200 | > 200 | 
O=S(=O)(O)c1cc(O)c2ccc3c(S(=O)(=O)O)cc(S(=O)(=O)O)c4ccc1c2c34 |  |  | inactive
Cc1ccc(/C=C2\CCOC2=O)cc1 | > 138 | > 138 | 
CCC(C)C1NC(=O)C(N(C)C)Cc2cc(ccc2OC)/C=C/NC(=O)C(Cc2ccccc2)NC1=O (stereo not given) | > 35.5 | > 35.5 | 
COc1c2occc2c(S(=O)(=O)O)c2ccc(=O)oc12 | > 302 | > 302 | 
O=C(N/C(=C\c1ccc(Cl)cc1)c1nc2ccccc2[nH]1)c1ccccc1 | > 69.2 | 58.9 | 
CC1CCCCN1CC(=O)c1ccc2c(c1)Sc1ccccc1O2 (stereo not given) | > 200 | 8.13 | 
CC(C)CS(=O)(=O)/C(=C(\c1ccc(Br)cc1)S(=O)(=O)CC(C)C)c1ccc(Br)cc1 | > 1.29 | > 1.29 | 
COC(=O)c1cc2c(cc1CC1Cc3cc4c(cc3C1)CCC4)CCC2 | > 200 | > 200 | 
N#CC1=C(Nc2ccccc2)SC=C(c2ccccc2)NC1=NCc1ccccc1 | > 200 | 97.7 | 
CCCCc1ccc(-n2sc3ncc(-c4ccccc4)cc3c2=O)cc1 | 95.5 | 117 | 
CN1C(=O)C2CC(O)C(SC3CC4C(=O)N(C)C(=O)C4CC3O)CC2C1=O (stereo not given) | > 200 | > 200 | 
COCC(O)Cn1ccnc1[N+](=O)[O-] (stereo not given) | > 1230 | > 1230 | 
COc1ccc(N(C)CN(C)c2nc(N(C)C)nc(N(C)C)n2)cc1 | > 200 | 36.3 | 
O=C(c1cc(Cl)ccc1Cl)N1CCN(c2ccc(Cl)c(Cl)c2)CC1 | > 200 | 25.1 | 
NS(=O)(=O)c1nnc(NS(=O)(=O)c2ccc(F)cc2)s1 | > 200 | > 200 | 
CCCCC[C@@H]1CCCC2C1CCC(CCCCCO)N2C(=O)OCC(Cl)(Cl)Cl (stereo not given in full) |  |  | inactive
CN1C(=NCCO)NS(=O)(=O)c2ccccc21 | > 977 | > 977 | 

SMILES | EC50 [µM] | IC50 [µM] | outcome
Cc1ccc(NC(=O)CC2Sc3ccccc3NC2=O)cc1C (stereo not given) | > 6.17 | > 6.17 | 
NC1=NN(c2ccccc2)C(=O)C1C(=O)CCC(=O)Nc1cccc(C(F)(F)F)c1 (stereo not given) | > 427 | 407 | 
O=c1cc([O-])[n+](C2OC(CO)C(O)C2O)c2sccn12 (stereo not given) | > 63.1 | > 63.1 | 
O=C1OCC(O)=C1C(c1ccc(Cl)cc1)c1cc2c(cc1O)OCO2 (stereo not given) | > 200 | > 200 | 
COc1ccc(C(c2c(O)c3ccccc3oc2=O)N2CCOCC2)cc1 (stereo not given) | > 200 | > 100 | 
CN(NC(=O)c1cccs1)C1=NCCN1 | > 200 | > 200 | 
COC(=O)c1ccccc1CC1Cc2ccc3c(c2C1)CCC3 (stereo not given) | > 200 | 91.2 | 
NCCN(CCN)/[N+]([O-])=N/O | > 200 | > 200 | 
[N-]=[N+]=NC[C@H]1OCO[C@H](CN=[N+]=[N-])[C@@H](OCCOCCCl)[C@@H]1OCCOCCCl | > 200 | 148 | 
Cn1ccnc1.Cn1ccnc1.Cn1ccnc1.Cn1ccnc1.[O-][Cl+3]([O-])([O-])[O-].[Pt+2] | > 200 | > 200 | 
Cc1cn(C2CCC(CO)(CF)O2)c(=O)[nH]c1=O (stereo not given) | > 200 | > 200 | 
Oc1ccc(Cc2cc(Cc3ccc(O)cc3)cc(Cc3ccc(O)cc3)c2)cc1 | 93.3 | > 100 | 
Clc1cccc2nncc(N3CC3)c12 |  |  | inactive
COc1cc(C2C3C=CC=C4CC=CC(=C43)C3CCC(=O)N32)cc(OC)c1OC (stereo not given) | > 200 | > 200 | 
CCCCC(=O)[O-].N.N.N.N.N.[Co+3].[O-][Cl+3]([O-])([O-])[O-] |  |  | inactive
CC1=C2NCN(C)N=C2C(C#N)(C#N)C1(C#N)C#N | > 200 | 10.5 | 
O=C1NC2C(=O)N(Cc3ccccc3)C(=O)C2N1 (stereo not given) | > 29.5 | > 29.5 | 
Cc1c2c(Cl)c3c(c(Cl)c2c(C)c2c(Cl)c4c(c(Cl)c12)C(c1ccccc1)(c1ccccc1)C4(c1ccccc1)c1ccccc1)C(c1ccccc1)(c1ccccc1)C3(c1ccccc1)c1ccccc1 | > 100 | > 100 | 
O=C(CCc1cc(-c2ccccc2)nc(=S)[nH]1)Nc1ccccc1[N+](=O)[O-] | > 661 | > 661 | 
CS(=O)(=O)OCC1CN(S(C)(=O)=O)c2cc(O)ccc21 (stereo not given) | > 200 | 1.51 | 
O=[N+]([O-])c1ccc(/C=C/c2ccc([N+](=O)[O-])cc2S(=O)(=O)O)c(S(=O)(=O)O)c1 |  |  | inactive

SMILES | EC50 [µM] | IC50 [µM] | outcome
O=C(OC1CCCCC1)c1cc(NC(=S)c2ccccc2F)ccc1Cl | 0.0363 | 18.2 | 
N#CCC(=O)Nc1ccccc1O | > 708 | > 708 | 
CCOc1ccc(NC(=O)/C(=C\c2ccc(C)cc2)C(C)=O)cc1 |  |  | inactive
O=C(CCCC[n+]1ccccc1)Sc1ccccc1C(=O)Nc1ccc(S(=O)(=O)Nc2ccccn2)cc1 | 26.9 | 115 | 
COc1ccc(S(=O)(=O)c2nnc(S(=O)(=O)Cc3ccccc3)s2)cc1 | > 200 | 3.63 | 
CC1(C)C(=O)C(O)=CC2C1=CCC1C2(C)C(=O)CC2(C)C(C(C)(O)C(=O)CC(O)C(C)(C)O)C(O)CC12C (stereo not given) | > 20 | 1.32 | 
CC(C)=CCC1(c2ccccc2)Oc2cccnc2-n2cccc2C1=O (stereo not given) | > 200 | 28.8 | 
O=C(CC1(O)C(=O)Nc2c(Cl)ccc(Cl)c21)c1ccc(Cl)cc1 (stereo not given) | > 51.3 | > 51.3 | 
CCOC(=O)C1C(C(C)C)C2(C#N)C(=N)OC1(C)C2(C#N)C#N (stereo not given) | > 200 | 49 | 
CCO/S(=N/S(=O)(=O)c1ccccc1)c1ccccc1[N+](=O)[O-] (stereo not given) | > 708 | 182 | 
CC(C)=CCCC1(C)C=Cc2c(cc(O)c3c(=O)c4cccc(O)c4oc23)O1 (stereo not given) | > 200 | 33.9 | 
CS(=O)(=O)CCC1CCC(=O)O1 (stereo not given) | > 200 | 182 | 
CC(=O)NC(NNC(NC(C)=O)(c1ccccc1)c1ccccc1)(c1ccccc1)c1ccccc1 | > 200 | > 200 | 
O=C1CC[C@H]2[C@@H]3N1c1ccccc1[C@@]31CCN3C/C(=C/CBr)[C@@H]2C[C@H]31 | > 75.9 | > 75.9 | 
Nc1ccc2oc3cccnc3c2c1 | > 977 | 372 | 
CCOC(=O)CN1C(=O)NC(C)(c2ccccc2)C1=O (stereo not given) | > 200 | > 200 | 
CSCCC(NC(=O)Cc1ccc(C(=O)c2ccccc2)cc1)C(=O)O (stereo not given) | > 200 | > 200 | 
Clc1ccc(C2=Cc3nc2c(-c2ccccc2)c2ccc([nH]2)c(-c2ccccc2)c2nc(c(-c4ccccc4)c4ccc([nH]4)c3-c3ccccc3)C=C2)cc1 | > 200 | > 200 | 
O=C(Nc1ccc(Sc2ccc(N=Nc3c(O)c(S(=O)(=O)O)cc4cc(S(=O)(=O)O)ccc34)cc2)cc1)c1ccc(N=Nc2ccc3c(S(=O)(=O)O)cccc3c2O)cc1 |  |  | inactive
CC(C)NC(=O)OCCN=C1c2ccccc2C(Br)C(Br)c2ccccc21 (stereo not given) | > 200 | 0.575 | 
